Measured values from patent US9428519B2, “Acylated derivative of homoharringtonine, preparation method therefor, and application thereof” (HANGZHOU BENSHENG PHARMACEUTICAL CO., LTD., priority 2011, dated 2016).
Converted amounts (≈) assume the structure as drawn.

Assays:
[1] = tested on: K562/adr (drug-resistant, chronic myeloid leukemia, CML); experiment: MTT growth inhibition of leukemia cells, 72 h; type: cell-based, human; details: MTT
Source text: (§1) Leukemia cell lines: leukemia cell lines: K562/adr (drug-resistant, chronic myeloid leukemia, CML), NB4 (acute promyelocytic leukemia, AML), Kasumi-1 (acute myeloid leukemia M2 type, AML-M2), Jurkat (acute lymphoblastic leukemia, ALL), all of which are donated by Cancer Research Institute of Zhejiang University, China; and H9 (acute lymphoblastic leukemia, ALL), which is purchased from China Center for Type Culture Collection (CCTCC).
(§2) Reagents: The standard sample of homoharringtonine (HHT) is purchased from Taihua Natural Plant Pharmaceutical Co., Ltd., Shaanxi, China, the homoharringtonine derivatives of the present invention.
(§3) Obtaining 6000 well-growing leukemia cells and inoculating them into wells of a 96-well cell culture plate. The culture medium is the 1640 cell culture medium containing 10% fetal bovine serum. After adding the homoharringtonine derivatives of different concentrations and mixing uniformly, placing the plate in a carbon dioxide cell incubator (5% CO2) at 37° C. and incubated for 72 hours. Then the viable cell concentration is determined by the MTT method. In this experiment, the cell viability in control group (not treated with any compound) is set as 100%. On such basis, the cell viability (%) after treatment and the 50% inhibiting concentration of the compound for the leukemia cell growth at 72 hours (IC50 value of 72 hours) are calculated.

[2] = tested on: NB4 (acute promyelocytic leukemia, AML); experiment: MTT growth inhibition of leukemia cells, 72 h; type: cell-based, human; details: MTT
Source text: as §1, §2, §3

[3] = tested on: Jurkat (acute lymphoblastic leukemia, ALL); experiment: MTT growth inhibition of leukemia cells, 72 h; type: cell-based, human
Source text: as §1, §2, §3

[4] = tested on: H9 (acute lymphoblastic leukemia, ALL); experiment: MTT growth inhibition of leukemia cells, 72 h; type: cell-based, human; details: MTT
Source text: as §1, §2, §3

[5] = tested on: Kasumi-1 (acute myeloid leukemia M2 type, AML-M2); experiment: MTT growth inhibition of leukemia cells, 72 h; type: cell-based, human; details: MTT
Source text: as §1, §2, §3

[6] = tested on: SK-OV-3 (ovarian cancer cell); experiment: MTT growth inhibition of human solid tumor cells, 72 h; type: cell-based; details: MTT
Method: (§4) Human solid tumor cell lines: Hep-2 (laryngeal carcinoma), A549 (human lung cancer), CaES-17 (esophageal cancer cell), PC-3 (prostate cancer), CNE (nasopharyngeal carcinoma cell), and SK-OV-3 (ovarian cancer cell), all of which are purchased from China Center For Type Culture Collection; RKO (human colon adenocarcinoma cell), MGC 803 (human gastric cancer cell), MG63 (osteosarcoma) and U87 MG (malignant glioma cell), all of which are purchased from Fuxiang Bio-tech Co. Ltd., Shanghai, China; PANC-1 (pancreatic cancer), Huh7 (human liver cancer cell), Becap37 (human breast cancer cell), and Hela (human cervical cancer cell), all of which are donated by Cancer Research Institute of Zhejiang University, China.
(§5) Obtaining 4000 well-growing human solid tumor cells and inoculating them into wells of a 96-well cell culture plate. The culture medium is DMEM High Glucose cell culture medium containing 10% fetal bovine serum. The plate is placed in a carbon dioxide cell incubator (5% CO2) at 37° C. and incubated for 24 hours. After adding the homoharringtonine derivatives of different concentration and mixing uniformly, the plate is placed in a carbon dioxide cell incubator (5% CO2) at 37° C. and incubated for 72 hours. Then the viable cell concentration is determined by the MTT method and the cell viability (%) after drug treatment is calculated. In this experiment, the cell viability of control group (not treated with any compound) is set as 100%.

[7] = tested on: MGC 803 (human gastric cancer cell); experiment: as above; type: cell-based
Method: as §4, §5

[8] = tested on: U87 MG (malignant glioma cell); experiment: as above; type: cell-based
Method: as §4, §5

[9] = tested on: Huh7 (human liver cancer cell); experiment: as above; type: cell-based
Method: as §4, §5

[10] = tested on: Hela (human cervical cancer cell); experiment: as above; type: cell-based; details: MTT
Method: as §4, §5

MG63 (osteosarcoma) = experiment: as above; type: cell-based; details: MTT
Method: as §4, §5

[11] = tested on: CaES-17 (esophageal cancer cell); experiment: as above; type: cell-based
Method: as §4, §5

[12] = tested on: Becap37 (human breast cancer cell); experiment: as above; type: cell-based
Method: as §4, §5

[13] = tested on: RKO (human colon adenocarcinoma cell); experiment: as above; type: cell-based; details: MTT
Method: as §4, §5

[14] = tested on: PANC-1 (pancreatic cancer); experiment: as above; type: cell-based; details: MTT
Method: as §4, §5

[15] = tested on: Hep-2 (laryngeal carcinoma); experiment: as above; type: cell-based
Method: as §4, §5

A549 (human lung cancer) = experiment: as above; type: cell-based
Method: as §4, §5

[16] = tested on: CNE (nasopharyngeal carcinoma cell); experiment: as above; type: cell-based; details: MTT
Method: as §4, §5

PC-3 (prostate cancer) = experiment: as above; type: cell-based; details: MTT
Method: as §4, §5

[17] = tested on: RPMI8226 (multiple myeloma); experiment: MTT growth inhibition of multiple myeloma cells, 72 h; type: cell-based, human; details: MTT
Method: Multiple myeloma and lymphoma cell lines: RPMI8226 (multiple myeloma), purchased from Fuxiang Bio-tech Co. Ltd., Shanghai, China.
as §3

SMILES: COC(=O)C[C@@](CCCC(C)(C)OC(=O)c1ccccc1)(OC(=O)c1ccccc1)C(=O)O[C@@H]1C(OC)=C[C@]23CCCN2CCc2cc4c(cc2[C@H]13)OCO4 [BS-HH-0732]
- IC50 K562/adr [1]: 2.5 µg/mL (≈ 3.32 µM)
- IC90 K562/adr [1]: 6.5 µg/mL (≈ 8.62 µM)
- IC50 NB4 [2]: 1.19 µg/mL (≈ 1.58 µM)
- IC90 NB4 [2]: 2.47 µg/mL (≈ 3.28 µM)
- IC50 Jurkat [3]: 1.4 µg/mL (≈ 1.86 µM)
- IC90 Jurkat [3]: 6.4 µg/mL (≈ 8.49 µM)
- IC50 H9 [4]: 1.3 µg/mL (≈ 1.72 µM)
- IC90 H9 [4]: 3.9 µg/mL (≈ 5.17 µM)
- IC50 Kasumi-1 [5]: 1.35 µg/mL (≈ 1.79 µM)
- IC90 Kasumi-1 [5]: 3.56 µg/mL (≈ 4.72 µM)
- IC50 SK-OV-3 [6]: 6.71 µg/mL (≈ 8.9 µM)
- IC90 SK-OV-3 [6]: >16 µg/mL
- IC50 MGC 803 [7]: 2.7 µg/mL (≈ 3.58 µM)
- IC90 MGC 803 [7]: 9.92 µg/mL (≈ 13.2 µM)
- IC50 U87 MG [8]: 2 µg/mL (≈ 2.65 µM)
- IC90 U87 MG [8]: 8.54 µg/mL (≈ 11.3 µM)
- IC50 Huh7 [9]: 4.8 µg/mL (≈ 6.37 µM)
- IC90 Huh7 [9]: 14.5 µg/mL (≈ 19.2 µM)
- IC50 Hela [10]: 2.61 µg/mL (≈ 3.46 µM)
- IC90 Hela [10]: 8.37 µg/mL (≈ 11.1 µM)
- IC50 MG 63 (MG63 (osteosarcoma)): 1.34 µg/mL (≈ 1.78 µM)
- IC90 MG 63 (MG63 (osteosarcoma)): 9.88 µg/mL (≈ 13.1 µM)
- IC50 CaES-17 [11]: 3.93 µg/mL (≈ 5.21 µM)
- IC90 CaES-17 [11]: 16 µg/mL (≈ 21.2 µM)
- IC50 Becap37 [12]: 2.9 µg/mL (≈ 3.85 µM)
- IC90 Becap37 [12]: 12.7 µg/mL (≈ 16.8 µM)
- IC50 RKO [13]: 1.4 µg/mL (≈ 1.86 µM)
- IC90 RKO [13]: 5.24 µg/mL (≈ 6.95 µM)
- IC50 PANC-1 [14]: 5.8 µg/mL (≈ 7.69 µM)
- IC90 PANC-1 [14]: 16 µg/mL (≈ 21.2 µM)
- IC50 Hep-2 [15]: 3.46 µg/mL (≈ 4.59 µM)
- IC90 Hep-2 [15]: >16 µg/mL
- IC50 A549 (A549 (human lung cancer)): 5.4 µg/mL (≈ 7.16 µM)
- IC90 A549 (A549 (human lung cancer)): >16 µg/mL
- IC50 CNE [16]: 3.91 µg/mL (≈ 5.19 µM)
- IC90 CNE [16]: >16 µg/mL
- IC50 PC-3 (PC-3 (prostate cancer)): 3.97 µg/mL (≈ 5.27 µM)
- IC90 PC-3 (PC-3 (prostate cancer)): 16 µg/mL (≈ 21.2 µM)
- IC50 RPMI8226 [17]: 1.15 µg/mL (≈ 1.53 µM)
- IC90 RPMI8226 [17]: 3.84 µg/mL (≈ 5.09 µM)

SMILES: COC(=O)C[C@@](CCCC(C)(C)OC(=O)c1scnc1C)(OC(=O)c1scnc1C)C(=O)O[C@@H]1C(OC)=C[C@]23CCCN2CCc2cc4c(cc2[C@H]13)OCO4 [BS-HH-0722]
- IC50 K562/adr [1]: 0.9 µg/mL (≈ 1.13 µM)
- IC90 K562/adr [1]: 3.72 µg/mL (≈ 4.67 µM)
- IC50 NB4 [2]: 0.2 µg/mL (≈ 0.251 µM)
- IC90 NB4 [2]: 0.49 µg/mL (≈ 0.616 µM)
- IC50 Jurkat [3]: 0.3 µg/mL (≈ 0.377 µM)
- IC90 Jurkat [3]: ≥ 16 µg/mL
- IC50 H9 [4]: 0.47 µg/mL (≈ 0.591 µM)
- IC90 H9 [4]: 1.24 µg/mL (≈ 1.56 µM)
- IC50 Kasumi-1 [5]: 0.14 µg/mL (≈ 0.176 µM)
- IC90 Kasumi-1 [5]: 0.47 µg/mL (≈ 0.591 µM)
- IC50 SK-OV-3 [6]: 1.94 µg/mL (≈ 2.44 µM)
- IC90 SK-OV-3 [6]: >16 µg/mL
- IC50 MGC 803 [7]: 0.5 µg/mL (≈ 0.628 µM)
- IC90 MGC 803 [7]: 12 µg/mL (≈ 15.1 µM)
- IC50 U87 MG [8]: 0.67 µg/mL (≈ 0.842 µM)
- IC90 U87 MG [8]: 3.42 µg/mL (≈ 4.3 µM)
- IC50 Huh7 [9]: 0.66 µg/mL (≈ 0.829 µM)
- IC90 Huh7 [9]: 7.6 µg/mL (≈ 9.55 µM)
- IC50 Hela [10]: 0.87 µg/mL (≈ 1.09 µM)
- IC90 Hela [10]: >16 µg/mL
- IC50 MG 63 (MG63 (osteosarcoma)): 0.21 µg/mL (≈ 0.264 µM)
- IC90 MG 63 (MG63 (osteosarcoma)): 9.43 µg/mL (≈ 11.8 µM)
- IC50 CaES-17 [11]: 1.24 µg/mL (≈ 1.56 µM)
- IC90 CaES-17 [11]: 16 µg/mL (≈ 20.1 µM)
- IC50 Becap37 [12]: 0.47 µg/mL (≈ 0.591 µM)
- IC90 Becap37 [12]: 16 µg/mL (≈ 20.1 µM)
- IC50 RKO [13]: 0.22 µg/mL (≈ 0.276 µM)
- IC90 RKO [13]: 0.87 µg/mL (≈ 1.09 µM)
- IC50 PANC-1 [14]: 0.83 µg/mL (≈ 1.04 µM)
- IC90 PANC-1 [14]: >16 µg/mL
- IC50 Hep-2 [15]: 0.48 µg/mL (≈ 0.603 µM)
- IC90 Hep-2 [15]: >16 µg/mL
- IC50 A549 (A549 (human lung cancer)): 0.89 µg/mL (≈ 1.12 µM)
- IC90 A549 (A549 (human lung cancer)): >16 µg/mL
- IC50 CNE [16]: 0.77 µg/mL (≈ 0.967 µM)
- IC90 CNE [16]: >16 µg/mL
- IC50 PC-3 (PC-3 (prostate cancer)): 0.82 µg/mL (≈ 1.03 µM)
- IC90 PC-3 (PC-3 (prostate cancer)): >16 µg/mL
- IC50 RPMI8226 [17]: 0.29 µg/mL (≈ 0.364 µM)
- IC90 RPMI8226 [17]: 1.82 µg/mL (≈ 2.29 µM)
